This assay in a line: Compound was evaluated for inhibition of tyrosinase enzyme.

In general, IC50 refers to the concentration at which inhibition is half-maximal. Read a high IC50 as weaker potency. `CC[C@H](C)[C@H](NC(=O)OCc1cc(=O)c(O)co1)C(=O)O` registered an IC50 of 15.3 µM. As to `CC[C@H](C)[C@H](NC(=O)OCc1cc(=O)c(O)co1)C(=O)OCc1cc(=O)c(O)co1`, the half-maximal inhibitory concentration (IC50) stood at 0.7 µM. Turning to `CC(C)[C@H](NC(=O)OCc1cc(=O)c(O)co1)C(=O)OCc1cc(=O)c(O)co1` [(S)-2-(5-Hydroxy-4-oxo-4H-pyran-2-ylmethoxycarbonylamino)-3-methyl-butyric acid 5-hydroxy-4-oxo-4H-pyran-2-ylmethyl ester], the 50% inhibitory concentration (IC50) is 2.39 µM. Molecule `CC(C)[C@H](NC(=O)OCc1cc(=O)c(O)co1)C(=O)O` [(S)-2-(5-Hydroxy-4-oxo-4H-pyran-2-ylmethoxycarbonylamino)-3-methyl-butyric acid] displayed an IC50 of 16.7 µM. The result for `O=C(N[C@@H](Cc1ccccc1)C(=O)OCc1cc(=O)c(O)co1)OCc1cc(=O)c(O)co1` [(S)-2-(5-Hydroxy-4-oxo-4H-pyran-2-ylmethoxycarbonylamino)-3-phenyl-propionic acid 5-hydroxy-4-oxo-4H-pyran-2-ylmethyl ester] reads 0.06 µM; that for `O=C(N[C@@H](Cc1ccccc1)C(=O)O)OCc1cc(=O)c(O)co1` [(S)-2-(5-Hydroxy-4-oxo-4H-pyran-2-ylmethoxycarbonylamino)-3-phenyl-propionic acid], 8 µM; that for `CC(C)C[C@H](NC(=O)OCc1cc(=O)c(O)co1)C(=O)OCc1cc(=O)c(O)co1` [(S)-2-(5-Hydroxy-4-oxo-4H-pyran-2-ylmethoxycarbonylamino)-4-methyl-pentanoic acid 5-hydroxy-4-oxo-4H-pyran-2-ylmethyl ester], 2 µM. Regarding `CC(C)C[C@H](NC(=O)OCc1cc(=O)c(O)co1)C(=O)O` [(S)-2-(5-Hydroxy-4-oxo-4H-pyran-2-ylmethoxycarbonylamino)-4-methyl-pentanoic acid], half-maximal inhibition (IC50) was put at 14.5 µM. In the case of `C[C@H](NC(=O)OCc1cc(=O)c(O)co1)C(=O)OCc1cc(=O)c(O)co1` [(S)-2-(5-Hydroxy-4-oxo-4H-pyran-2-ylmethoxycarbonylamino)-propionic acid 5-hydroxy-4-oxo-4H-pyran-2-ylmethyl ester], the IC50 is 3.03 µM.

Regarding `C[C@H](NC(=O)OCc1cc(=O)c(O)co1)C(=O)O` [(S)-2-(5-Hydroxy-4-oxo-4H-pyran-2-ylmethoxycarbonylamino)-propionic acid], it took 23.2 µM to reach half-maximal inhibition (IC50).

(Values after BindingDB's records for doi:10.1016/0960-894X(96)00221-1 (1996).)
